# Assay results published in patent publication US20230085307A1, “PYRIDAZINONE COMPOUND AND HERBICIDE” (NISSAN CHEMICAL CORPORATION, priority 2019, published 2023).
# Assays:
# chickweed = test: Test Example 4: herbicidal effect by soil treatment (Table 19, symbol P); assay type: in vivo, common chickweed (Stellaria media); details: 320 g/ha
# Summary of the method: (§1)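 Seeds were sown in sterilized diluvial soil and covered with about 1.5 cm of soil. An emulsion formulation diluted with water to a predetermined herbicide amount was sprayed evenly onto the soil surface. Plants grew in a greenhouse at 25° C. to 30° C., and the effect was scored three weeks after application using criteria from an earlier test.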
# wild oat [1] = test: Test Example 4: herbicidal effect by soil treatment (Table 19, symbol I); assay type: in vivo, wild oat (Avena fatua); details: 320 g/ha
# Summary of the method: as §1
# rice flat sedge = test: Test Example 3: herbicidal effect by foliage application, Wagner pot (Table 18, symbol E); assay type: in vivo, rice flat sedge (Cyperus iria); details: 320 g/ha
# Summary of the method: (§2)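 Plants were sown in alluvial soil held under 0.1–0.5 cm standing water and grown 14 days in a greenhouse at 25–30 °C. An emulsifiable formulation, water-diluted to the set dose, was then sprayed onto the foliage, and effects were scored three weeks later using previously defined criteria.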
# windgrass = test: Test Example 5: herbicidal effect by foliage application, plastic box (Table 20, symbol L); assay type: in vivo, windgrass (Apera spica-venti); details: foliage application, 320 g/ha, 3 weeks after application
# Summary of the method: (§3)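 Plants sown in sterilized diluvial soil and grown 14 days in a greenhouse at 25° C to 30° C, then sprayed on the foliage with the compound's emulsion diluted in water to a predetermined herbicide amount. Injury to weeds and crops scored three weeks after application on a visual rating scale.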
# redroot pigweed = test: Test Example 4: herbicidal effect by soil treatment (Table 19, symbol N); assay type: in vivo, redroot pigweed (Amaranthus retroflexus); details: 320 g/ha
# Summary of the method: as §1
# blackgrass = test: Test Example 5: herbicidal effect by foliage application, plastic box (Table 20, symbol J); assay type: in vivo, blackgrass (Alopecurus myosuroides); details: foliage application, 320 g/ha, 3 weeks after application
# Summary of the method: as §3
# southern crabgrass [2] = test: Test Example 5: herbicidal effect by foliage application, plastic box (Table 20, symbol F); assay type: in vivo, southern crabgrass (Digitaria ciliaris); details: foliage application, 320 g/ha, 3 weeks after application
# Summary of the method: as §3
# southern crabgrass [3] = test: Test Example 4: herbicidal effect by soil treatment (Table 19, symbol F); assay type: in vivo, southern crabgrass (Digitaria ciliaris); details: 320 g/ha
# Summary of the method: as §1
# velvetleaf = test: Test Example 4: herbicidal effect by soil treatment (Table 19, symbol M); assay type: in vivo, velvetleaf (Abutilon theophrasti); details: 320 g/ha
# Summary of the method: as §1
# barnyard grass [4] = test: Test Example 4: herbicidal effect by soil treatment (Table 19, symbol H); assay type: in vivo, barnyard grass (Echinochloa crus-galli); details: 320 g/ha
# Summary of the method: as §1
# Italian ryegrass [5] = test: Test Example 4: herbicidal effect by soil treatment (Table 19, symbol K); assay type: in vivo, Italian ryegrass (Lolium multiflorum); details: 320 g/ha
# Summary of the method: as §1
# wild oat [6] = test: Test Example 5: herbicidal effect by foliage application, plastic box (Table 20, symbol I); assay type: in vivo, wild oat (Avena fatua); details: foliage application, 320 g/ha, 3 weeks after application
# Summary of the method: as §3
# barnyard grass [7] = test: Test Example 5: herbicidal effect by foliage application, plastic box (Table 20, symbol H); assay type: in vivo, barnyard grass (Echinochloa crus-galli); details: foliage application, 320 g/ha, 3 weeks after application
# Summary of the method: as §3
# lambsquarters [8] = test: Test Example 4: herbicidal effect by soil treatment (Table 19, symbol O); assay type: in vivo, lambsquarters (Chenopodium album); details: 320 g/ha
# Summary of the method: as §1
# barnyard grass [9] = test: Test Example 3: herbicidal effect by foliage application, Wagner pot (Table 18, symbol H); assay type: in vivo, barnyard grass (Echinochloa crus-galli); details: 320 g/ha
# Summary of the method: as §2
# green foxtail = test: Test Example 4: herbicidal effect by soil treatment (Table 19, symbol G); assay type: in vivo, green foxtail (Setaria viridis); details: 320 g/ha
# Summary of the method: as §1
# persian speedwell = test: Test Example 5: herbicidal effect by foliage application, plastic box (Table 20, symbol R); assay type: in vivo, Persian speedwell (Veronica persica); details: foliage application, 320 g/ha, 3 weeks after application
# Summary of the method: as §3
# lambsquarters [10] = test: Test Example 5: herbicidal effect by foliage application, plastic box (Table 20, symbol O); assay type: in vivo, lambsquarters (Chenopodium album); details: foliage application, 320 g/ha, 3 weeks after application
# Summary of the method: as §3
# Italian ryegrass [11] = test: Test Example 5: herbicidal effect by foliage application, plastic box (Table 20, symbol K); assay type: in vivo, Italian ryegrass (Lolium multiflorum); details: foliage application, 320 g/ha, 3 weeks after application
# Summary of the method: as §3
# late watergrass = test: Test Example 2: herbicidal activity, application during weed generation under submerged conditions (Table 17, symbol A); assay type: in vivo, late watergrass (Echinochloa oryzicola); details: AAH 320 g/ha; application during weed generation, submerged conditions
# Summary of the method: (§4)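 Alluvial soil in Wagner pots was flooded to 4 cm depth and sown with the three weeds together; pots were kept in a greenhouse at 25° C. to 30° C. At the one to two leaf stage, an emulsion formulation diluted in water to a set rate went onto the water surface; scored three weeks later.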
# Japanese bulrush = test: Test Example 2: herbicidal activity, application during weed generation under submerged conditions (Table 17, symbol B); assay type: in vivo, Japanese bulrush (Schoenoplectus juncoides); details: AAH 320 g/ha; application during weed generation, submerged conditions
# Summary of the method: as §4
Structure (SMILES),"herbicidal effect rating, P: chickweed (chickweed)","herbicidal effect rating, I: wild oat (wild oat [1])","herbicidal effect on E (rice flat sedge), rating 0-5 (rice flat sedge)",effect on windgrass (L) (windgrass),"herbicidal effect rating, N: redroot pigweed (redroot pigweed)",effect on blackgrass (J) (blackgrass),effect on southern crabgrass (F) (southern crabgrass [2]),"herbicidal effect rating, F: southern crabgrass (southern crabgrass [3])","herbicidal effect rating, M: velvetleaf (velvetleaf)","herbicidal effect rating, H: barnyard grass (barnyard grass [4])","herbicidal effect rating, K: Italian ryegrass (Italian ryegrass [5])",effect on wild oat (I) (wild oat [6]),effect on barnyard grass (H) (barnyard grass [7]),"herbicidal effect rating, O: lambsquarters (lambsquarters [8])","herbicidal effect on H (barnyard grass), rating 0-5 (barnyard grass [9])","herbicidal effect rating, G: green foxtail (green foxtail)",effect on persian speedwell (R) (persian speedwell),effect on lambsquarters (O) (lambsquarters [10]),effect on Italian ryegrass (K) (Italian ryegrass [11]),"herbicidal effect rating, A: late watergrass (late watergrass)",other results
CCCOc1ccc(-c2sc3ccc(F)cc3c2-c2c(O)c(C)nn(C)c2=O)cc1 [2-032],4 (Herbicidal rate of 70% or more and less than 90%),0 (Herbicidal rate of 5% or less (almost no effect)),5 (Herbicidal rate of 90% or more (almost completely withered)),4 (Herbicidal rate of 70% or more and less than 90%),5 (Herbicidal rate of 90% or more (almost completely withered)),5 (Herbicidal rate of 90% or more (almost completely withered)),5 (Herbicidal rate of 90% or more (almost completely withered)),2 (Herbicidal rate of 20% or more and less than 40%),5 (Herbicidal rate of 90% or more (almost completely withered)),2 (Herbicidal rate of 20% or more and less than 40%),0 (Herbicidal rate of 5% or less (almost no effect)),3 (Herbicidal rate of 40% or more and less than 70%),5 (Herbicidal rate of 90% or more (almost completely withered)),5 (Herbicidal rate of 90% or more (almost completely withered)),5 (Herbicidal rate of 90% or more (almost completely withered)),3 (Herbicidal rate of 40% or more and less than 70%),5 (Herbicidal rate of 90% or more (almost completely withered)),5 (Herbicidal rate of 90% or more (almost completely withered)),4 (Herbicidal rate of 70% or more and less than 90%),1 (Herbicidal rate of 5% or more and less than 20%),"herbicidal effect rating, B: Japanese bulrush (Japanese bulrush): 4 (Herbicidal rate of 70% or more and less than 90%)"
Cc1nn(C)c(=O)c(-c2c(-c3ccc(OC(C)C)cc3)sc3ccc(F)cc23)c1O [2-034],4 (Herbicidal rate of 70% or more and less than 90%),0 (Herbicidal rate of 5% or less (almost no effect)),5 (Herbicidal rate of 90% or more (almost completely withered)),4 (Herbicidal rate of 70% or more and less than 90%),5 (Herbicidal rate of 90% or more (almost completely withered)),5 (Herbicidal rate of 90% or more (almost completely withered)),5 (Herbicidal rate of 90% or more (almost completely withered)),5 (Herbicidal rate of 90% or more (almost completely withered)),4 (Herbicidal rate of 70% or more and less than 90%),2 (Herbicidal rate of 20% or more and less than 40%),1 (Herbicidal rate of 5% or more and less than 20%),3 (Herbicidal rate of 40% or more and less than 70%),5 (Herbicidal rate of 90% or more (almost completely withered)),5 (Herbicidal rate of 90% or more (almost completely withered)),5 (Herbicidal rate of 90% or more (almost completely withered)),4 (Herbicidal rate of 70% or more and less than 90%),5 (Herbicidal rate of 90% or more (almost completely withered)),5 (Herbicidal rate of 90% or more (almost completely withered)),5 (Herbicidal rate of 90% or more (almost completely withered)),1 (Herbicidal rate of 5% or more and less than 20%),"herbicidal effect rating, B: Japanese bulrush (Japanese bulrush): 3 (Herbicidal rate of 40% or more and less than 70%)"
CCCCOc1ccc(-c2sc3ccc(F)cc3c2-c2c(O)c(C)nn(C)c2=O)cc1 [2-036],3 (Herbicidal rate of 40% or more and less than 70%),0 (Herbicidal rate of 5% or less (almost no effect)),5 (Herbicidal rate of 90% or more (almost completely withered)),4 (Herbicidal rate of 70% or more and less than 90%),5 (Herbicidal rate of 90% or more (almost completely withered)),4 (Herbicidal rate of 70% or more and less than 90%),4 (Herbicidal rate of 70% or more and less than 90%),2 (Herbicidal rate of 20% or more and less than 40%),4 (Herbicidal rate of 70% or more and less than 90%),0 (Herbicidal rate of 5% or less (almost no effect)),0 (Herbicidal rate of 5% or less (almost no effect)),4 (Herbicidal rate of 70% or more and less than 90%),5 (Herbicidal rate of 90% or more (almost completely withered)),5 (Herbicidal rate of 90% or more (almost completely withered)),5 (Herbicidal rate of 90% or more (almost completely withered)),0 (Herbicidal rate of 5% or less (almost no effect)),5 (Herbicidal rate of 90% or more (almost completely withered)),5 (Herbicidal rate of 90% or more (almost completely withered)),3 (Herbicidal rate of 40% or more and less than 70%),0 (Herbicidal rate of 5% or less (almost no effect)),"herbicidal effect rating, B: Japanese bulrush (Japanese bulrush): 3 (Herbicidal rate of 40% or more and less than 70%)"
